Experimental data taken from patent US5616684A, “Cyclic peptides and use thereof” (priority 1991, dated 1997).
Non-standard residues stand in square brackets, D forms with d. Residues, ends and D or L forms follow the SMILES beside them. *: point of attachment. NMeW = CN[C@@H](Cc1c[nH]c2ccccc12)C(=O)O; NMeF = CN[C@@H](Cc1ccccc1)C(=O)O; dTle = CC(C)(C)[C@@H](N)C(=O)O; NMeL = CN[C@@H](CC(C)C)C(=O)O; X3 = O=C(Cc1c[nH]c2ccccc12)*; Orn = NCCC[C@H](N)C(=O)O; PhAc = O=C(Cc1ccccc1)*; Sar = CNCC(=O)O

Experiments:
[1] = biological target: T1, endothelin receptor A (ETA) (Sus scrofa, UniProt Q29010); assay: Assay of Affinity for Receptor (1): Binding Activity on ETA Receptor; design: key to Binding Activity on ET Receptor (R. act.) ETA: relative binding activity; reference cyclic pentapeptide = 1.0; conditions: specific activity, binding activity of cyclo[-D-Glu-Ala-D-aIle-Leu-D-Trp-] taken as 1.0; porcine heart membrane fraction, 125I-labeled endothelin-1, 25° C., 1 hour
T1 construct: A membrane fraction prepared from the porcine heart; from tissue; host or cells: porcine heart membrane fraction
T1 sequence (Q29010 21-427): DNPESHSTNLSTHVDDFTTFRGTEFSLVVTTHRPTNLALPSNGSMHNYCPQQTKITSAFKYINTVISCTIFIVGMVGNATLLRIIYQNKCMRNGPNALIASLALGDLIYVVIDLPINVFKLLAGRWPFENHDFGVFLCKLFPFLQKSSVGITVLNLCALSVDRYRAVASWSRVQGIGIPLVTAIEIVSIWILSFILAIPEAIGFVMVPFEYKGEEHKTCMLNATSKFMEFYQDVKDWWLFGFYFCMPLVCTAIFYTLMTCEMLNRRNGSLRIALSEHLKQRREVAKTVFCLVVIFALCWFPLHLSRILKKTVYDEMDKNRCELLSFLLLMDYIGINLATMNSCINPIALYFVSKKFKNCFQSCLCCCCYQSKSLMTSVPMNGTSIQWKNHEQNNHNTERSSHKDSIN
Protocol: Assay of Affinity for Receptor (1) . . . Binding Activity on ETA Receptor
A membrane fraction prepared from the porcine heart was diluted to 0.15 mg/ml by using a buffer solution for assay, and 100 μl of the resulting suspension of the membrane fraction was poured into each assay tube to use for assay. To this suspension of the membrane fraction was added 2 μl of 5 nM ^125 I-labeled endothelin-1 solution. Further, 3 μl of a test peptide solution was added thereto, followed by incubation at a temperature of 25° C. for 1 hour. Then, the resulting suspension was diluted with 900 μl of the buffer solution for assay cooled with ice, and thereafter separated into a supernatant and a precipitate by centrifugation at 12,000×g for 10 minutes. Cell membranes and an endothelin receptor A (ETA) embedded therein were contained in the precipitate, and radioactive iodine-labeled endothelin combined with the receptor was also recovered in the precipitate. Accordingly, the amount of radioactive iodine-labeled endothelin combined with the endothelin receptor A (ETA) was determined by measuring the amount of radioactive iodine contained in the precipitate with a gamma-ray counter. The cyclic pentapeptide described in Japanese Patent Application No. 2-413828/1990, cyclo[-D-Glu-Ala-D-aIle-Leu-D-Trp-], was used as a control compound. The numerical value of ETA shown in Table 1 is the value of specific activity, taking the binding activity of this cyclic pentapeptide on the receptor A as 1.0. The binding activity (IC50) of this cyclic pentapeptide on the ETA receptor is 2×10^-6 M.

[2] = tested on: ETB receptor (guinea pig kidney crude receptor membrane fraction); assay: ETB Radio Receptor Assay *2; type: binding; conditions: relative activity (Example 8 given as 100), 125I-endothelin-1, 37° C., 90 minutes
Protocol: ETB Radio Receptor Assay *2
In the endothelin radio receptor assay, guinea pigs' kidneys were used. Guinea pigs (Std Hartrey, male 250 g, Japan SLC Ltd.) were made to have a cerebral concussion and sacrificed by bleeding from carotid arteries to pick up the kidneys and removed fat therefrom to prepare the kidneys. The obtained kidneys were sliced and homogenized by politron homogenizer in 20 ml of 50 mM Tris-HCl buffer [pH 7.4; 20 mM NaHCO3, 0.1 mM PMSF (Phenylmethylsulfonyl Fluoride), 1 mM EDTA (Ethylenediaminetetraacetic acid)] per one kidney. The homogenized kidney was applied to a centrifugation at 1,000×g for 15 minutes and the supernatant was further applied to a centrifugation for 20 minutes at 30,000×g. The resulting precipitate was twice washed with 50 mM Tris-HCl buffer (pH 7.4) containing 0.1 mM PMSF, 1 mM EDTA. The resultant was stored at -80 ° C. as a crude receptor membrane fraction and was used as the suspension in the following buffer when necessary.
740 Bq of ^125 I-endothelin-1 (81.4 TBq/mmol, Du Pont, USA) as a radio ligand, the crude membrane fraction (2.1 μg protein) and samples were added to the following buffer. The reaction was performed at 37° C., for 90 minutes in 0.2 ml of the buffer [50 mM Tris-HCl buffer (pH 7.4) containing 0.1 mM PMSF, 1 mM EDTA, 0.2% bovine serum albumin].
The reaction was stopped by fast filtration on a glass filter (GF/B, Wattman, USA) by Cell Harvestor (290 PHD, Cambridge-Technology, Great Britain), and the filter was three times washed with 50 mM Tris-HCl buffer (pH 7.4). Radio activity remained on the filter was assayed by a gamma counter.

| Structure (SMILES) | Binding Activity on ET Receptor (R. act.) ETA [1] | Binding Activity on ET Receptor (R. act.) ET8 *2 [2] |
| --- | --- | --- |
| CC(C)C[C@@H]1NC(=O)[C@@H](CC(C)C)NC(=O)[C@H](CC(=O)O)NC(=O)[C@H](C(C)C)NC(=O)[C@@H](CC(=O)O)NC(=O)[C@@H](Cc2c[nH]c3ccccc23)NC1=O [Example 17, Cyclo[--D--Asp--Val--Asp--D--Leu--Leu--D--Trp--]] (cyclo(D[dL]L[dW][dD]V)) | 3.7 | 22 |
| CC(C)C[C@@H]1NC(=O)[C@@H](CC(C)C)NC(=O)[C@H](CC(=O)O)NC(=O)[C@H](CC(C)C)NC(=O)[C@@H](CC(=O)O)NC(=O)[C@@H](Cc2c[nH]c3ccccc23)NC1=O [Example 18, Cyclo[--D--Asp--Leu--Asp--D--Leu--Leu--D--Trp--]] (cyclo(D[dL]L[dW][dD]L)) | 13 | 2.2 |
| CC(C)C[C@@H]1NC(=O)[C@@H](CC(C)C)NC(=O)[C@H](CC(=O)O)NC(=O)[C@H](Cc2ccccc2)NC(=O)[C@@H](CC(=O)O)NC(=O)[C@@H](Cc2c[nH]c3ccccc23)NC1=O [Example 19, Cyclo[--D--Asp--Phe--Asp--D--Leu--Leu--D--Trp--]] (cyclo(D[dL]L[dW][dD]F)) | 8.3 | 7.1 |
| CC(C)C[C@@H]1NC(=O)[C@@H](CC(C)C)NC(=O)[C@H](CC(=O)O)NC(=O)[C@H]2CCCN2C(=O)[C@@H](CC(=O)O)NC(=O)[C@@H](Cc2c[nH]c3ccccc23)NC1=O [Example 24, Cyclo[--D--Asp--D--Pro--Asp--D--Leu--Leu--D--Trp--]] (cyclo(D[dL]L[dW][dD][dP])) | 1.7 |  |
| CC(C)C[C@@H]1NC(=O)[C@@H](CC(C)C)NC(=O)[C@@H]2CCCN2C(=O)[C@H](CC(=O)O)NC(=O)[C@@H](CC(=O)O)NC(=O)[C@@H](Cc2c[nH]c3ccccc23)NC1=O [Example 30, Cyclo[--D--Asp--Asp--Pro--D--Leu--Leu--D--Trp--]] (cyclo(DP[dL]L[dW][dD])) | 4.4 | 9.1 |
| CC(C)C[C@@H]1NC(=O)[C@@H](CC(C)C)NC(=O)[C@H]2CCCN2C(=O)[C@H](CC(=O)O)NC(=O)[C@@H](CC(=O)O)NC(=O)[C@@H](Cc2c[nH]c3ccccc23)NC1=O [Example 31, Cyclo[--D--Asp--Asp--D--Pro--D--Leu--Leu--D--Trp--]] (cyclo(D[dP][dL]L[dW][dD])) | 2.6 | 1.0 |
| CC(C)C[C@@H]1NC(=O)[C@H](CC(=O)O)NC(=O)[C@@H](CC(=O)O)NC(=O)[C@@H](Cc2c[nH]c3ccccc23)NC(=O)[C@H](CC(C)C)NC(=O)[C@@H](CC(C)C)NC1=O [Example 32, Cyclo[--D--Asp--Asp--Leu--D--Leu--Leu--D--Trp--]] (cyclo(DL[dL]L[dW][dD])) | 4.0 | 7.7 |
| CC(C)C[C@@H]1NC(=O)[C@@H](CC(C)C)NC(=O)[C@H](Cc2c[nH]c3ccccc23)NC(=O)[C@H](CC(=O)O)NC(=O)[C@@H](CC(=O)O)NC(=O)[C@@H](Cc2c[nH]c3ccccc23)NC1=O [Example 33, Cyclo[--D--Asp--Asp--Trp--D--Leu--Leu--D--Trp--]] (cyclo(DW[dL]L[dW][dD])) | 2.9 | 5.6 |
| CC(C)C[C@@H]1NC(=O)[C@@H](CC(C)C)NC(=O)[C@H](CC(=O)O)NC(=O)CN(C)C(=O)[C@@H](CC(=O)O)NC(=O)[C@@H](Cc2c[nH]c3ccccc23)NC1=O [Example 46, Cyclo[--D--Asp--Sar--Asp--D--Leu--Leu--D--Trp--]] (cyclo(D[dL]L[dW][dD][Sar])) | 8.1 | 75 |
| CC(C)C[C@@H]1NC(=O)[C@@H](CC(C)C)NC(=O)[C@H](CC(=O)O)NC(=O)[C@H](CC(C)C)N(C)C(=O)[C@@H](CC(=O)O)NC(=O)[C@@H](Cc2c[nH]c3ccccc23)NC1=O [Example 47, Cyclo[--D--Asp--N--MeLeu--Asp--D--Leu--Leu--D--Trp--]] (cyclo(D[dL]L[dW][dD][NMeL])) | 6.8 | 17 |
| CC(C)C[C@@H]1NC(=O)[C@@H](CC(C)C)NC(=O)[C@H](CC(=O)O)NC(=O)[C@H](Cc2ccccc2)N(C)C(=O)[C@@H](CC(=O)O)NC(=O)[C@@H](Cc2c[nH]c3ccccc23)NC1=O [Example 48, Cyclo[--D--Asp--N--MePhe--Asp--D--Leu--Leu--D--Trp--]] (cyclo(D[dL]L[dW][dD][NMeF])) | 2.7 | 13 |
| CC(C)C[C@@H]1NC(=O)[C@@H](C(C)(C)C)NC(=O)[C@H](CC(=O)O)NC(=O)[C@H](Cc2c[nH]c3ccccc23)NC(=O)[C@@H](CC(=O)O)NC(=O)[C@@H](Cc2c[nH]c3ccccc23)NC1=O [Example 53, cyclo[-D-Asp-Trp-Asp-D-tLeu-Leu-D-Trp-]] (cyclo(D[dTle]L[dW][dD]W)) | 64 | 460 |
| CC(C)C[C@@H]1NC(=O)[C@@H](CC(C)C)NC(=O)[C@H](CC(=O)O)NC(=O)[C@H](Cc2c[nH]c3ccccc23)N(C)C(=O)[C@@H](CC(=O)O)NC(=O)[C@@H](Cc2c[nH]c3ccccc23)NC1=O [Example 67, Cyclo[--D--Asp--N--MeTrp--Asp--D--Leu--Leu--D--Trp--]] (cyclo(D[dL]L[dW][dD][NMeW])) | 9.1 | 30 |
| CC(C)C[C@@H]1NC(=O)[C@@H](CC(C)C)NC(=O)[C@H](CC(=O)O)NC(=O)[C@H](CCCNC(=O)Cc2ccccc2)NC(=O)[C@@H](CC(=O)O)NC(=O)[C@@H](Cc2c[nH]c3ccccc23)NC1=O [Example 80, cyclo[-D-Asp-Orn(COCH2 Ph)-AsP-D-Leu-Leu-D-Trp-]] (cyclo(D[dL]L[dW][dD][Orn](PhAc))) | 260 | 380 |
| CC(C)C[C@@H]1NC(=O)[C@@H](CC(C)C)NC(=O)[C@H](CC(=O)O)NC(=O)[C@H](CCCNC(=O)Cc2c[nH]c3ccccc23)NC(=O)[C@@H](CC(=O)O)NC(=O)[C@@H](Cc2c[nH]c3ccccc23)NC1=O [Example 82, cyclo[-D-Asp-Orn(COCH2 -Ind)-Asp-D-Leu-Leu-D-Trp-]] (cyclo(D[dL]L[dW][dD][Orn](X3))) | 240 | 500 |
| CC(C)C[C@@H]1NC(=O)[C@@H](CC(C)C)NC(=O)[C@H](CC(=O)O)NC(=O)[C@H](Cc2c[nH]cn2)NC(=O)[C@@H](CC(=O)O)NC(=O)[C@@H](Cc2c[nH]c3ccccc23)NC1=O [Example 83, Cyclo[--D--Asp--His--Asp--D--Leu--Leu--D--Trp--]] (cyclo(D[dL]L[dW][dD]H)) | 15 | 43 |
